This assay relates to primary cultured neonatal microglia. Put plainly: LPS induced NO release, Griess assay, laboratory scaled setup.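 As to active: compounds at or above the IC50 cutoff were called inactive.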 As to conditions: for IC50: Mus musculus, Microglia. It is filed as cell-based, mouse. How it is done: Primary cultured neonatal microglia. For preparation of cultured neonatal microglia, P0-P3 mice were used. 10 brains were extracted, meninges and cerebellum were removed and put on ice with Hank's balanced salt solution (HBSS). The dissected brains were washed 3 times before adding 400 μL trypsin (0.1 mg/L) and DNAse (5 μg/L) in phosphate buffered saline (PBS). After 2 min of incubation with this solution, the reaction was blocked by adding plain medium. After removal of the medium, 1 mg DNAse was added and the cells were mechanically dissociated, with a Pasteur pipette followed by a glass pipette. The cells were centrifuged for 10 min at 129 g at 4° C. The supernatant was discarded. The pellet was resuspended in plain medium and plated (2.5 brains/flask) in Poly-L-Lysine coated flasks. The cells were washed after 2 days with PBS and incubated for another 7 days in plain medium. Afterwards the medium was replaced by plain medium with 33% L929 conditioned medium. After 2 days, cells were harvested by shaking them for 30 min at 150 rpm. The supernatant was centrifuged for 10 min at 129 g at 4° C. The cells were plated into a 96 well plate (100 000 cells/well, 200 μL medium per well). This procedure could be repeated 2 times with a 2 day interval.
Griess assay. Cells were seeded according to the protocols described above, after compounds and stimuli were added, 100 μl of supernatant was transferred into a new 96 well plate and 100 μl freshly mixed Griess reagent were added. Griess reagent was composed of reagent A (100 mg Naphthylethylene in 50 ml aqua dest.) and reagent B (1 g Sulfanilamide, […] H3PO4 (85%) in 44 mL aqua dest.) mixed 1:1. The solution was carefully mixed and the absorbance was determined in a microplate reader at a wavelength of 550 nm.
Dissolved sodium nitrite in plain medium served as a standard. Total amount of nitrite was calculated by a linear regression of the standard curve.
The activity of the compounds listed in column 1 of Table 1 as inhibitors of NO production was compared in murine primary cultured neonatal microglia as described above.
Background: Griess reagent forms a coloured azo dye with nitrite.

[1] abbreviates: inhibitors of NO production, murine primary cultured neonatal microglia, read-out: IC50.
[2] abbreviates: inhibitors of NO production, murine primary cultured neonatal microglia, read-out: activity class (IC50).
Setting [3] is: inhibitors of NO production, murine primary cultured neonatal microglia.
Where [4] appears, read: inhibitors of NO production, murine primary cultured neonatal microglia, read-out: active.

Molecules are shown by their SMILES. Where two headings read alike, the source gives them in different places. Some results are limits rather than exact numbers.

In the case of `COc1ccc([C@H](NC(=O)[C@@H]2CCCN2C(=O)OCc2ccccc2)C(=O)Nc2ccc3c(c2)CCO3)cc1` [Compound 22, benzyl-(S)-2-(((S)-2-((2,3-dihydrobenzofuran-5-yl)amino)-1-(4-methoxyphenyl)-2-oxoethyl)carbamoyl)pyrrolidine-1-carboxylate], the IC50 was 0.231 µM under setting [1] and less than 1 µM under setting [2]. For the same compound, the active entry under setting [3] is recorded as “YES”. In the same order, the values of `COc1ccc(NC(=O)[C@@H](NC(=O)[C@@H]2CCCN2C(=O)C2CCCCC2)c2ccc(OC)cc2)cc1` [Compound 23, (S)-1-(cyclohexanecarbonyl)-N—((S)-1-(4-methoxyphenyl)-2-((4-methoxyphenyl)amino)-2-oxoethyl)pyrrolidine-2-carboxamide] are 1.08 µM, less than 10 µM and “YES”. Taken in the same sequence, the figures for `COc1ccc(NC(=O)[C@@H](NC(=O)[C@@H]2CCCN2C(=O)c2ccccc2)c2ccc(OC)cc2)cc1` [Compound 24, (S)-1-benzoyl-N—((S)-1-(4-methoxyphenyl)-2-((4-methoxyphenyl)amino)-2-oxoethyl)pyrrolidine-2-carboxamide] were 1.1 µM, less than 10 µM and “YES”.

Regarding `COc1ccc(NC(=O)[C@@H](NC(=O)[C@@H]2CCCN2C(=O)CCc2ccccn2)c2ccc(OC)cc2)cc1` [Compound 25, (S)—N—((S)-1-(4-methoxyphenyl)-2-((4-methoxyphenyl)amino)-2-oxoethyl)-1-(3-(pyridin-2-yl)propanoyl)pyrrolidine-2-carboxamide], the IC50 under setting [1] is 6.88 µM and the IC50 under setting [2] was less than 10 µM. Further, the active result under setting [3] is on record as “YES”. Turning to `COc1ccc([C@H](NC(=O)[C@@H]2CCCN2C(=O)OCc2ccccc2)C(=O)Nc2cnc(C)s2)cc1` [Compound 26, benzyl (S)-2-(((S)-1-(4-methoxyphenyl)-2-((2-methylthiazol-5-yl)amino)-2-oxoethyl)carbamoyl)pyrrolidine-1-carboxylate], the IC50 under setting [1] was 2.5 µM and the IC50 under setting [2] was less than 10 µM. For the same compound, the active result under setting [3] is listed as “YES”. On to `COc1ccc([C@H](NC(=O)[C@@H]2CCCN2C(=O)OCc2ccccc2)C(=O)Nc2cnc(C3CC3)nc2)cc1` [Compound 27, benzyl(S)-2-(((S)-2-((2-cyclopropylpyrimidin-5-yl)amino)-1-(4-methoxyphenyl)-2-oxoethyl)carbamoyl)pyrrolidine-1-carboxylate], for which the IC50 reads like this: under setting [1], 1.91 µM; under setting [2], less than 10 µM. Under setting [3], the active result is “YES”. In the same order, the values of `COc1ccc(NC(=O)[C@@H](NC(=O)[C@@H]2CCCN2C(=O)OC(C)(C)C)c2ccc(OC)cc2)cc1` [Compound 28, tert-butyl (S)-2-(((S)-1-(4-methoxyphenyl)-2-((4-methoxyphenyl)amino)-2-oxoethyl)carbamoyl)pyrrolidine-1-carboxylate] are 3.3 µM, less than 10 µM and “YES”. In the same order, the values of `COc1ccc(NC(=O)[C@@H](NC(=O)[C@@H]2CCCN2C(=O)OCc2ccccc2)c2ccc(OCCOCCOCCOCCOCCOCCNC(=O)CCCC[C@@H]3SC[C@@H]4NC(=O)N[C@@H]43)cc2)cc1` [Compound 29, benzyl (S)-2-(((S)-2-((4-methoxyphenyl)amino)-2-oxo-1-(4-((19-oxo-23-((3aS,4S,6aR)-2-oxohexahydro-1H-thieno[3,4-d]imidazol-4-yl)-3,6,9,12,15-pentaoxa-18-azatricosyl)oxy)phenyl)ethyl)carbamoyl)pyrrolidine-1-carboxylate] are 2.36 µM, less than 10 µM and “YES”. Take `COc1ccc(NC(=O)[C@@H](NC(=O)[C@@H]2CCN2C(=O)OCc2ccccc2)c2ccc(OC)cc2)cc1` [Compound 30, benzyl (S)-2-(((S)-1-(4-methoxyphenyl)-2-((4-methoxyphenyl)amino)-2-oxoethyl)carbamoyl)azetidine-1-carboxylate]: under setting [2], the IC50 was less than 1 µM. Besides, under setting [3], the active result is “YES”. With `COc1ccc(NC(=O)[C@@H](NC(=O)[C@@H]2C[C@@H]3CCCC[C@@H]3N2C(=O)OCc2ccccc2)c2ccc(OC)cc2)cc1` [Compound 31, benzyl(2S,3aS,7aS)-2-(((S)-1-(4-methoxyphenyl)-2-((4-methoxyphenyl)amino)-2-oxoethyl)carbamoyl)octahydro-1H-indole-1-carboxylate], the IC50 under setting [2] was less than 10 µM. The active entry under setting [3] was “YES”. Taken in the same sequence, the figures for `COc1ccc(NC(=O)[C@@H](NC(=O)[C@@H]2Cc3ccccc3CN2C(=O)OCc2ccccc2)c2ccc(OC)cc2)cc1` [Compound 32, benzyl (S)-3-(((S)-1-(4-methoxyphenyl)-2-((4-methoxyphenyl)amino)-2-oxoethyl)carbamoyl)-3,4-dihydroisoquinoline-2(1H)-carboxylate] were less than 10 µM and “YES”. In the same order, the values of `COc1ccc(NC(=O)[C@@H](NC(=O)[C@]2(C)CCCN2C(=O)OCc2ccccc2)c2ccc(OC)cc2)cc1` [Compound 33, benzyl (S)-2-(((S)-1-(4-methoxyphenyl)-2-((4-methoxyphenyl)amino)-2-oxoethyl)carbamoyl)-2-methylpyrrolidine-1-carboxylate] are less than 0.2 µM and “YES”. In the same order, the values of `COc1ccc(NC(=O)[C@@H](NC(=O)[C@@H]2CCCCN2C(=O)OCc2ccccc2)c2ccc(OC)cc2)cc1` [Compound 34, benzyl (S)-2-(((S)-1-(4-methoxyphenyl)-2-((4-methoxyphenyl)amino)-2-oxoethyl)carbamoyl)piperidine-1-carboxylate] are less than 0.2 µM and “YES”. `COc1ccc(NC(=O)[C@@H](NC(=O)[C@@H]2CCCN2CCCc2ccccc2)c2ccc(OC)cc2)cc1` [Compound 39, (S)—N—((S)-1-(4-methoxyphenyl)-2-((4-methoxyphenyl)amino)-2-oxoethyl)-1-(3-phenylpropyl)pyrrolidine-2-carboxamide]: the IC50 under setting [4] was no less than 10 µM. `COc1ccc([C@H](NC(=O)[C@@H]2CCCN2C(=O)OCc2ccccc2)C(=O)Nc2cnn(C)c2)cc1` [Compound 40, benzyl (S)-2-(((S)-1-(4-methoxyphenyl)-2-((1-methyl-1H-pyrazol-4-yl)amino)-2-oxoethyl)carbamoyl)pyrrolidine-1-carboxylate]: the IC50 under setting [4] is no less than 10 µM. Consider `COc1ccc([C@H](NC(=O)[C@@H]2CCCN2C(=O)OCc2ccccc2)C(=O)Nc2cccc3c2ccn3C)cc1` [Compound 41, benzyl (S)-2-(((S)-1-(4-methoxyphenyl)-2-((1-methyl-1H-indol-4-yl)amino)-2-oxoethyl)carbamoyl)pyrrolidine-1-carboxylate], for which the IC50 under setting [4] was no less than 10 µM. On the same count and under the same terms, then `COc1ccc([C@H](NC(=O)[C@@H]2CCCN2C(=O)OCc2ccccc2)C(=O)Nc2ccc3c(c2)n(C)c(=O)n3C)cc1` [Compound 42, benzyl (S)-2-(((S)-2-((1,3-dimethyl-2-oxo-2,3-dihydro-1H-benzo[d]imidazol-5-yl)amino)-1-(4-methoxyphenyl)-2-oxoethyl)carbamoyl)pyrrolidine-1-carboxylate], with no less than 10 µM; and `COc1ccc([C@H](NC(=O)[C@@H]2CCCN2C(=O)OCc2ccccc2)C(=O)Nc2ccccc2)cc1` [Compound 43, benzyl (S)-2-(((S)-1-(4-methoxyphenyl)-2-oxo-2-(phenylamino)ethyl)carbamoyl)pyrrolidine-1-carboxylate], with no less than 10 µM. The same measure, in the same setting: then `COc1ccc(NC(=O)[C@@H](NC(=O)[C@@H]2CCCN2)c2ccc(OC)cc2)cc1` [Compound 44], with no less than 10 µM; and `COc1ccc(NC(=O)[C@@H](NC(=O)[C@@H]2CCCN2C(=O)CCCCCNC(=O)CCCC[C@@H]2SC[C@@H]3NC(=O)N[C@@H]32)c2ccc(OC)cc2)cc1` [Compound 45], with no less than 10 µM; and `COc1ccc(NC(=O)[C@@H](NC(=O)[C@@H]2CCCN2C(C)=O)c2ccc(OC)cc2)cc1` [Compound 47], with no less than 10 µM. Consider `COc1ccc([C@H](NC(=O)[C@@H]2CCCN2C(=O)OCc2ccccc2)C(=O)Nc2ccc3nncn3c2)cc1` [Compound 48], for which the IC50 under setting [4] is no less than 10 µM. Still for that read-out and setting: the figure for `COc1ccc([C@H](NC(=O)[C@@H]2CCCN2C(=O)OCc2ccccc2)C(=O)Nc2cccnc2)cc1` [Compound 49] is no less than 10 µM. Turning to `COc1ccc(NC(=O)[C@H](NC(=O)[C@@H]2CCCN2C(=O)OCc2ccccc2)c2ccc(OC)cc2)cc1` [Compound 50, benzyl-(S)-2-(((R)-1-(4-methoxyphenyl)-2-((4-methoxyphenyl)amino)-2-oxoethyl)carbamoyl)-pyrrolidine-1-carboxylate], under “FIG. 9”, the “inhibitory effect in the NO release assay” value is “not”. Further, the IC50 by setting is: (0.002 to 20 μM, FIG. 9, read-out: IC50, LPS induced NO production (stereoisomers)) 40 µM; under setting [4], no less than 10 µM.

The record behind these values is patent publication US20240025849A1 (MAX DELBRÜCK-CENTRUM FÜR MOLEKULARE MEDIZIN IN DER …, priority 2020, published 2024).
